From PubChem BioAssay (NCI)
Where “and” joins values, the source holds several entries; their conditions need not be identical. Equal entries are not always repeated.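 All cell lines were grown in 96-well plates and treated with compound for 48 hours. GI50 is the concentration that inhibits growth by half. The concentration for full growth arrest is given as TGI.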

Experiments:
Experiment in all cases: growth of human tumour cells (NCI), 48 h
[1] = system: MOLT-4 leukemia
[2] = system: UACC-62 melanoma
[3] = system: HL-60(TB) leukemia
[4] = system: HOP-62 NSCLC
[5] = system: MCF7 breast
[6] = system: RXF 393 renal
[7] = system: NCI-H23 lung
[8] = system: TK-10 renal
[9] = system: UACC-257 melanoma
[10] = system: SNB-19 CNS

Row | Compound | GI50 [1] | TGI [1] | GI50 [2] | TGI [2] | GI50 [3] | TGI [3] | GI50 [4] | TGI [4] | GI50 [5] | TGI [5] | GI50 [6] | TGI [6] | GI50 [7] | TGI [7] | GI50 [8] | TGI [8] | GI50 [9] | TGI [9] | GI50 [10] | TGI [10]
1 | CO[C@H](C(=O)N[C@@H](CCCCNC(=O)OCc1ccccc1)C(=O)OC(C)(C)C)[C@@H]1Cc2cc3cc(OC4CC(OC5CC(O)C(O)C(C)O5)C(O)C(C)O4)c(C)c(O)c3c(O)c2C(=O)[C@H]1OC1CC(OC2CC(OC3CC(C)(O)C(O)C(C)O3)C(O)C(C)O2)C(O)C(C)O1 (stereo not given in full) | 0.381 µM | 2.73 µM | 0.369 µM | 1.7 µM | 0.971 µM | 5.92 µM | 0.464 µM | 2.73 µM | 0.281 µM | 2.03 µM | 0.705 µM | 2.02 µM | 0.667 µM | 2.37 µM | 1.15 µM | > 10 µM | 0.812 µM | 4.01 µM | 0.52 µM | 2.6 µM
2 | Cn1cc(C2=C(c3c4n(c5ccccc35)CCC(CN)CC4)C(=O)NC2=O)c2ccccc21 (stereo not given) | 5.27 µM | 13.3 µM | 3.65 µM | 7.28 µM | 5.22 µM | 11.5 µM | 3.93 µM | 8.22 µM | 3.48 µM | 7.41 µM | 3.65 µM | 7.1 µM | 5.05 µM | 10.9 µM | 3.31 µM | 6.95 µM | 3.89 µM | 7.57 µM | 4.52 µM | 10.7 µM
3 | CN1CCN(Cc2ccc(NC(=O)c3cncc(C#Cc4c(N)ncc5cc(F)ccc45)c3)cc2C(F)(F)F)CC1 | – | – | 1.88 µM | 5.18 µM | 0.289 µM | 1.49 µM | 2.4 µM | 12 µM | 0.591 µM | 1.35 µM | 0.836 µM | 1.57 µM | 1.36 µM | 4.65 µM | 2.08 µM | 4.43 µM | 0.975 µM | 2.4 µM | 0.87 µM | 1.57 µM
4 | O=C1/C(=C/c2ccc(Cl)cc2)CN(C(=O)C(Cl)Cl)C/C1=C\c1ccc(Cl)cc1 | 0.273 µM | > 28.1 µM | 0.19 µM | 0.426 µM | 0.291 µM | – | 0.288 µM | 0.94 µM | 0.0441 µM | 0.56 µM | 0.18 µM | 0.378 µM | 0.242 µM | 0.887 µM | 0.374 µM | 1.52 µM | 0.465 µM | 1.55 µM | 0.177 µM | 0.576 µM
5 | CC(C)=CCC/C(C)=C/CC/C(=C/COP(=O)(OCc1ccc([N+](=O)[O-])o1)N(C)CCCCCl)C(C)(C)C (stereo not given) | 1.82 µM | > 100 µM | 9.21 µM | 23.5 µM | 4.18 µM | > 100 µM | 1.83 µM | 3.86 µM | 2.47 µM | 18.6 µM | 7.84 µM | 26.5 µM | 12.6 µM | 34.2 µM | 1.72 µM | 22.2 µM | 10.8 µM | 27.6 µM | 15.8 µM | 33.6 µM
6 | O=C(O)CCC1CCC(c2cc(F)ccc2F)(S(=O)(=O)c2ccc(Cl)cc2)CC1 (stereo not given) | 41.2 µM and > 59.7 µM | > 100 µM | 28.2 µM and 97.1 µM | > 100 µM | 31.3 µM and > 81 µM | > 100 µM | 30.5 µM and > 100 µM | > 100 µM | 29.2 µM and > 81.4 µM | > 100 µM | 12.5 µM and 76.6 µM | 78.8 µM and > 100 µM | 23.4 µM and > 100 µM | > 100 µM | 27.3 µM and > 100 µM | > 100 µM | 44 µM and > 100 µM | > 100 µM | 55.1 µM and > 100 µM | > 100 µM
7 | NC(=O)Oc1cc(OC(N)=O)cc(N(CCCl)CCCl)c1 | 2.18 µM | > 100 µM | 4.1 µM | 18.4 µM | 1.58 µM | > 100 µM | 20.9 µM | > 100 µM | 1.09 µM | 47.4 µM | 1.98 µM | 5.4 µM | 6.12 µM | 63 µM | 19.3 µM | 55.9 µM | 12.1 µM | 53.6 µM | 10.6 µM | > 100 µM
8 | COc1ccc2c(c1)Cc1c-2c(NN)nc2ccccc12 | 27.3 µM | > 100 µM | 25 µM | > 100 µM | 27.9 µM | > 100 µM | 56.6 µM | > 100 µM | 5.66 µM | 48.5 µM | 30.5 µM | > 100 µM | – | – | 57.3 µM | > 100 µM | 53.7 µM | > 100 µM | 31.3 µM | > 100 µM
9 | COc1cc(C(=O)n2nc(N3CCN(C)CC3)c3cc(N)ccc32)cc(OC)c1OC | 3.78 µM | 43.9 µM | 2.78 µM | 17.7 µM | 2.16 µM | 5.14 µM | 5.56 µM | > 100 µM | 3.02 µM | > 100 µM | 3.04 µM | > 100 µM | 4.15 µM | > 100 µM | 15.6 µM | > 100 µM | 28.5 µM | > 100 µM | 4.75 µM | > 100 µM
10 | CCOC(=O)c1c(Cl)c2c(n1Cc1cc(OC)cc(OC)c1)-c1oncc1CCC2 | 0.512 µM | > 100 µM | 0.193 µM | > 100 µM | 0.293 µM | 1.03 µM | 0.466 µM | > 33.3 µM | 0.168 µM | > 100 µM | 0.201 µM | 6.03 µM | 0.607 µM | > 100 µM | 10.3 µM | > 100 µM | 0.92 µM | > 100 µM | 0.629 µM | > 100 µM
11 | CN(C)CC1CCn2c(c(C3=C(c4cn(C)c5ccccc45)C(=O)NC3=O)c3ccccc32)C1 (stereo not given) | 4.74 µM | 13.9 µM | 3.91 µM | 7.49 µM | 5.87 µM | 11.2 µM | 4.55 µM | 8.91 µM | 4.31 µM | 8.03 µM | 3.3 µM | 6.71 µM | 4.71 µM | 11.3 µM | 3.03 µM | 7.27 µM | 3.93 µM | 7.52 µM | 4.84 µM | 10.4 µM
12 | CO[C@H]1CC[C@@]2(C)C(=CC[C@H]3[C@@H]4C[C@H](O)C[C@@]4(C)CC[C@@H]32)C1 | 4.92 µM | 30.6 µM | 3.88 µM | 16.9 µM | 3.69 µM | 66.7 µM | 10.2 µM | 52.4 µM | 5.32 µM | 25.3 µM | 2.49 µM | 6.57 µM | 5.54 µM | 27.1 µM | 4.74 µM | 17.9 µM | 4.89 µM | 17.9 µM | 4.86 µM | 22.2 µM
